Laboratory results published in patent US20110166119A1 (Glade Organics Private Limited, priority 2008, published 2011).
Where two headings read alike, the source gives them in different places.

Tests used:
[1] = system: Pseudomonas aeruginosa ATCC 27853; experiment: Checkerboard MIC, Pseudomonas aeruginosa ATCC 27853; format: cell-based; settings: for MIC in combination: Meropenem + Aztreonam combination, Table 6; for MIC: Pseudomonas aeruginosa, ATCC27853, read-out: MIC when taken individually
Method: (§1) The checkerboard array was performed in order to find the MIC's of selected antibacterial agents against the strains of Pseudomonas aeruginosa, Acinetobacter baumannii, Klebsiella pneumoniae and MRSA (Methicillin Resistant Staphylococcus aureus).
(§2) • 1. A total of 50 μl of Mueller-Hinton broth was distributed into each well of the micro dilution plates. • 2. The first antibiotic (A) of the combination was serially twofold diluted along the Y-axis, while the second antibiotic (B) was diluted along the X-axis. • 3. An inoculum equal to a 0.5 McFarland turbidity standard was prepared from each culture in sterile saline. • 4. Each micro titer well was inoculated with 100 μl of a bacterial inoculum and the plate was loaded on ELISA plate reader (37° C. for 24 hrs). Formula for ΣFIC (Fractional inhibitory concentration): […]
(§3) Where FIC A is the MIC of drug A in the combination/MIC of drug A alone,
(§4) FIC B is the MIC of drug B in the combination/MIC of drug B alone.
(§5) The combination is considered synergistic when the ΣFIC is ≦0.5, indifferent when the ΣFIC is >0.5 to <2, and antagonistic when the ΣFIC is ≧2.

[2] = system: Pseudomonas aeruginosa (PA1 - ESBL producing); experiment: Checkerboard MIC, Pseudomonas aeruginosa PA1; format: cell-based; settings: for MIC in combination: Ertapenem + Aztreonam combination, Table 1; for MIC: Pseudomonas aeruginosa, PA1, read-out: MIC when taken individually
Method: (§6) The synergistic outcome of the combination was recorded as a concave curve.
as §1, §2, §3, §4, §5

[3] = system: Methicillin Resistant Staphylococcus aureus (MRSA); experiment: Checkerboard MIC, MRSA; format: cell-based; settings: for MIC: Staphylococcus aureus, MRSA, read-out: MIC when taken individually
Method: as §6, §1, §2, §3, §4, §5

[4] = system: Acinetobacter baumanii; experiment: Checkerboard MIC, Acinetobacter baumanii; format: cell-based, Acinetobacter baumannii; settings: for MIC: Acinetobacter baumannii, single drug, read-out: MIC when taken individually
Method: as §6, §1, §2, §3, §4, §5

[5] = system: Klebsiella pneumoniae (VIM producing); experiment: Checkerboard MIC, Klebsiella pneumoniae; format: cell-based; settings: for MIC: Klebsiella pneumoniae, single drug, read-out: MIC when taken individually
Method: as §1, §2, §3, §4, §5

[6] = Meropenem 0.0488 + Aztreonam 19.53
[7] = Meropenem 0.097 + Aztreonam 9.76
[8] = Ertapenem 4.88 + Aztreonam 39.06
[9] = Ertapenem 9.76 + Aztreonam 19.53
[10] = Ertapenem 19.53 + Aztreonam 9.76
[11] = Ertapenem + Aztreonam combination, Table 4
[12] = Meropenem 6.1 + Aztreonam 19.53
[13] = Meropenem 12.2 + Aztreonam 9.76
[14] = Meropenem + Aztreonam combination, Table 7
[15] = Ertapenem/Aztreonam checkerboard, Table 3
[16] = Meropenem/Aztreonam checkerboard, Table 8
[17] = Ertapenem 0.61 + Aztreonam 312.5
[18] = Ertapenem 1.22 + Aztreonam 156.25
[19] = Ertapenem 2.44 + Aztreonam 78.12
[20] = Ertapenem + Aztreonam combination, Table 3
[21] = Meropenem 1.22 + Aztreonam 9.76
[22] = Meropenem 2.44 + Aztreonam 4.88
[23] = Meropenem + Aztreonam combination, Table 8
[24] = Ertapenem 1.22 + Aztreonam 2.44
[25] = Ertapenem 2.44 + Aztreonam 4.88
[26] = Ertapenem 4.88 + Aztreonam 9.76
[27] = Ertapenem + Aztreonam combination, Table 2
[28] = Meropenem/Aztreonam checkerboard, Table 5
[29] = Meropenem 0.097 + Aztreonam 19.53
[30] = Meropenem 0.195 + Aztreonam 9.76
[31] = Meropenem + Aztreonam combination, Table 5

In the case of C[C@H]1[C@H](NC(=O)/C(=N\OC(C)(C)C(=O)O)c2csc(N)n2)C(=O)N1S(=O)(=O)O [Aztreonam], the “FIC of Aztreonam (y-co-ordinate)” value [1, 6] was 0.5, the “FIC of Aztreonam (y-co-ordinate)” value [1, 7] was 0.25 and the MIC in combination [1] was 4.88 µg/mL. The MIC [1] was 39.1 µg/mL, the “FIC of Aztreonam (y-co-ordinate)” value [2, 8] was 1.0 and the “FIC of Aztreonam (y-co-ordinate)” value [2, 9] was 0.5. The “FIC of Aztreonam (y-co-ordinate)” value [2, 10] was 0.249, the MIC in combination [2] was 9.76 µg/mL and the MIC [2] was 39.1 µg/mL. The “FIC of Aztreonam (y-co-ordinate)” value [3, 8] was 0.0078, the “FIC of Aztreonam (y-co-ordinate)” value [3, 9] was 0.0039 and the “FIC of Aztreonam (y-co-ordinate)” value [3, 10] was 0.001952. For the same molecule, the MIC in combination [3, 11] was 9.76 µg/mL, the “FIC of Aztreonam (y-co-ordinate)” value [3, 12] was 0.039 and the “FIC of Aztreonam (y-co-ordinate)” value [3, 13] was 0.001952. For the same molecule, the MIC in combination [3, 14] was 19.53 µg/mL, the MIC [3] was 5000 µg/mL and the “MIC when taken individually” value ([3]; single drug, Ertapenem/Aztreonam checkerboard, Table 4) was 5000 µg/mL. The MIC [4, 15] was 10000 µg/mL, the MIC [4, 16] was 5000 µg/mL and the “FIC of Aztreonam (y-co-ordinate)” value [4, 17] was 0.0313). The “FIC of Aztreonam (y-co-ordinate)” value [4, 18] was 0.0156, the “FIC of Aztreonam (y-co-ordinate)” value [4, 19] was 0.0078 and the MIC in combination [4, 20] was 78.12 µg/mL. The “FIC of Aztreonam (y-co-ordinate)” value [4, 21] was 0.0039, the “FIC of Aztreonam (y-co-ordinate)” value [4, 22] was 0.00195 and the MIC in combination [4, 23] was 4.88 µg/mL. The “FIC of Aztreonam (y-co-ordinate)” value [5, 24] was 0.00195, the “FIC of Aztreonam (y-co-ordinate)” value [5, 25] was 0.0039 and the “FIC of Aztreonam (y-co-ordinate)” value [5, 26] was 0.0078). The “FIC of Aztreonam (y-co-ordinate)” value [5, 9] was 0.016), the MIC in combination [5, 27] was 1.22 µg/mL and the MIC [5, 28] was 1200 µg/mL. For the same molecule, the “FIC of Aztreonam (y-coordinate)” value [5, 29] was 0.016, the “FIC of Aztreonam (y-coordinate)” value [5, 30] was 0.078 and the MIC in combination [5, 31] was 9.76 µg/mL.

For C[C@@H](O)[C@H]1C(=O)N2C(C(=O)O)=C(S[C@@H]3CN[C@H](C(=O)Nc4cccc(C(=O)O)c4)C3)[C@H](C)[C@H]12 [Ertapenem], the “FIC of Ertapenem (x-co-ordinate)” value [2, 8] was 0.5, the “FIC of Ertapenem (x-co-ordinate)” value [2, 9] was 1.0 and the “FIC of Ertapenem (x-co-ordinate)” value [2, 10] was 2.0. The MIC in combination [2] was 4.88 µg/mL, the MIC [2] was 9.76 µg/mL and the “FIC of Ertapenem (x-co-ordinate)” value [3, 8] was 0.5. The “FIC of Ertapenem (x-co-ordinate)” value [3, 9] was 1, the “FIC of Ertapenem (x-co-ordinate)” value [3, 10] was 2 and the MIC in combination [3, 11] was 4.88 µg/mL. For the same molecule, the MIC [3] was 9.76 µg/mL, the MIC [4, 15] was 9.76 µg/mL and the “FIC of Ertapenem (x-co-ordinate)” value [4, 17] was “(0.0625,”. The “FIC of Ertapenem (x-co-ordinate)” value [4, 18] was 0.125, the “FIC of Ertapenem (x-co-ordinate)” value [4, 19] was 0.25 and the MIC in combination [4, 20] was 0.61 µg/mL. For the same molecule, the “FIC of Ertapenem (x-co-ordinate)” value [5, 24] was 0.25, the “FIC of Ertapenem (x-co-ordinate)” value [5, 25] was 0.5 and the “FIC of Ertapenem (x-co-ordinate)” value [5, 26] was “(1.0,”. The “FIC of Ertapenem (x-co-ordinate)” value [5, 9] was “(2.0,”, the MIC in combination [5, 27] was 4.88 µg/mL and the MIC ([5]; Ertapenem/Aztreonam checkerboard, Table 2) was 1.22 µg/mL.

For C[C@@H](O)[C@H]1C(=O)N2C(C(=O)O)=C(S[C@@H]3CN[C@H](C(=O)N(C)C)C3)[C@H](C)[C@H]12 [Meropenem], the “FIC of Meropenem (x-co-ordinate)” value [1, 6] was 0.25, the “FIC of Meropenem (x-co-ordinate)” value [1, 7] was 0.497 and the “FIC of Meropenem (x-co-ordinate)” value ([1]; Meropenem 0.195 + Aztreonam 4.88) was 1.0. The MIC in combination [1] was 0.0488 µg/mL, the MIC [1] was 0.195 µg/mL and the “FIC of Meropenem (x-co-ordinate)” value [3, 12] was 0.5. The “FIC of Meropenem (x-co-ordinate)” value [3, 13] was 1, the MIC in combination [3, 14] was 6.1 µg/mL and the MIC [3] was 12.2 µg/mL. For the same molecule, the MIC [4, 16] was 19.5 µg/mL, the “FIC of Meropenem (x-co-ordinate)” value [4, 21] was 0.0625 and the “FIC of Meropenem (x-co-ordinate)” value [4, 22] was 0.125. The MIC in combination [4, 23] was 1.22 µg/mL, the MIC [5, 28] was 0.781 µg/mL and the “FIC of Meropenem (x-co-ordinate)” value [5, 29] was 0.124. For the same molecule, the “FIC of Meropenem (x-co-ordinate)” value [5, 30] was 0.2496 and the MIC in combination [5, 31] was 0.097 µg/mL.
